According to patent US8431715B2, “Thiazole compound (as PPARδ) ligand and pharmaceutical, cosmetic and health food comprised thereof” (Seoul National University Industry Foundation, priority 2007, dated 2013):

Tests used:
[1] = molecular target: T1, PPARα (Homo sapiens, UniProt Q07869); experiment: Transfection assay (luciferase reporter) in CV-1 cells, PPARα; assay type: cell-based; settings: 24 hours treatment
T1 construct: Full length PPARs plasmid DNA, reporter DNA confirming PPARs activity owing to its luciferase activity; expressed in transfected cells; host or cells: CV-1 cells
T1 sequence (Q07869 1-468): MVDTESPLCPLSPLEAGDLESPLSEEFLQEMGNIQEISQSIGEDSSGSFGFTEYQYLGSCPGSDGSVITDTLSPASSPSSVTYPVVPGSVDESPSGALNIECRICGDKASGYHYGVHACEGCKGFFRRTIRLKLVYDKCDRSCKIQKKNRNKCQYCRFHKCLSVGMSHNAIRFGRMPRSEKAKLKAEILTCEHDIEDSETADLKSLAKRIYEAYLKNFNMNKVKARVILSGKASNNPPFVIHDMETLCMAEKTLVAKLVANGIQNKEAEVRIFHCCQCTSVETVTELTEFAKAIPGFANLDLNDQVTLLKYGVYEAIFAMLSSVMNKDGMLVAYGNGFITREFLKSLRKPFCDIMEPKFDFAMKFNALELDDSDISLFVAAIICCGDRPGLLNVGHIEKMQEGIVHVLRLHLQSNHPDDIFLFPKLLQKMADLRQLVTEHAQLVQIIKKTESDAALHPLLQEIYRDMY
Procedure: (§1) The PPARδ activities of the R-form compound represented by formula 1 of the present invention and the S-form compound represented by formula 2 were measured by transfection assay. In addition, the selectivity to PPAR subtypes, PPARα and PPARγ, was examined. Cytotoxicity was tested by MTT assay and in vivo activity and toxicity was investigated by animal experiment using mice.
(§2) CV-1 cells were used in this assay. The cells were inoculated in a 96-well plate containing DMEM supplemented with 10% FBS, DBS (delipidated) and 1% penicillin/streptomycin and cultured in a 37 °C, 5% CO2 incubator. The experiment was performed according to the steps of inoculation, transfection, sample treatment and confirmation. Particularly, CV-1 cells were inoculated in a 96 well-plate (5000 cells/well), followed by transfection 24 hours later. Full length PPARs plasmid DNA, reporter DNA confirming PPARs activity owing to its luciferase activity, β-galactosidase DNA providing information on transfection efficiency, and transfection reagent were used for the transfection. The compounds of formula 1 and formula 2 were dissolved in dimethylsulfoxide (DMSO), which were treated to the cells via media at different concentrations. […] Luciferase activity and β-galactosidaseactivity were measured with Luminometer and a microplate reader. […] A graph was made with those values and EC50 was calculated.

[2] = test system: mice; experiment: Muscle endurance test, treatment during pregnancy and/or lactation, treadmill; assay type: in vivo
Procedure: An animal test was performed to confirm muscle endurance strengthening and muscle function enhancing effect of the compound of the present invention. Most muscles are generated in the developmental stage. Thus, the compound of formula 1 (10 mg/Kg/day) were orally administered to pregnant mice in the period of either pregnancy or lactation or both pregnancy and lactation. […] Muscles were observed after removing skin. As a result, muscles of the treatment group were red, unlike the controlled one. ATPase staining and immunostaining were performed. As a result, type I muscle fiber was increased in the group treated with the compound of formula 1. The effect of the changes of the muscle fiber on the enhancement of muscle endurance and muscle function was investigated by using treadmill test. As a result, running time was much extended in the group treated with the compound of formula 1.

[3] = molecular target: T2, PPARγ (Homo sapiens, UniProt P37231); experiment: Transfection assay (luciferase reporter) in CV-1 cells, PPARγ; assay type: cell-based; settings: 24 hours treatment
T2 construct: Full length PPARs plasmid DNA, reporter DNA confirming PPARs activity owing to its luciferase activity; expressed in transfected cells; host or cells: CV-1 cells
T2 sequence (P37231 1-505): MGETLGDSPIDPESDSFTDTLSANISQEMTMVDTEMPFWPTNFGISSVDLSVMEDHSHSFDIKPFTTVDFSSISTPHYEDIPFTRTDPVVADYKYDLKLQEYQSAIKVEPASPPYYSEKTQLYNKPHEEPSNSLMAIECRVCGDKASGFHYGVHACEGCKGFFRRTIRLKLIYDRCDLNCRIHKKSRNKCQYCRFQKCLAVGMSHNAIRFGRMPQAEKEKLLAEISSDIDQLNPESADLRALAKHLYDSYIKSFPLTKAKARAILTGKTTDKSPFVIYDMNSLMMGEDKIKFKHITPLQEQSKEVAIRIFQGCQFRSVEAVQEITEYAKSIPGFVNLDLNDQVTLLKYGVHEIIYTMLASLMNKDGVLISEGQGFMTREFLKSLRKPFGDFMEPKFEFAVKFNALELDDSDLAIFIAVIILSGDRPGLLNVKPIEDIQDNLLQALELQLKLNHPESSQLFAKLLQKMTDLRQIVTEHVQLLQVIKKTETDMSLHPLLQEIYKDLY
Procedure: as §1, §2

[4] = test system: C57BL/6 mice; experiment: Hyperlipidemia improving effect, blood HDL level; assay type: in vivo; settings: 10 mg/kg/day oral, high fat feeds, 6 weeks, serum
Procedure: In vivo animal test using C57BL/6 (SLC Co.) mice at 6 weeks was performed to confirm the hyperlipidemia improving effect of the compound of the present invention. […] 6 weeks later, blood was taken from orbital veins. Serum was separated and blood HDL level was measured by biochemical method.

[5] = molecular target: T3, PPARδ (Homo sapiens, UniProt Q03181); experiment: Transfection assay (luciferase reporter) in CV-1 cells, PPARδ; assay type: cell-based; set-up: Full length PPARs plasmid DNA, reporter DNA confirming PPARs activity owing to its luciferase activity; expressed in transfected cells; host or cells: CV-1 cells
T3 sequence (Q03181 1-441): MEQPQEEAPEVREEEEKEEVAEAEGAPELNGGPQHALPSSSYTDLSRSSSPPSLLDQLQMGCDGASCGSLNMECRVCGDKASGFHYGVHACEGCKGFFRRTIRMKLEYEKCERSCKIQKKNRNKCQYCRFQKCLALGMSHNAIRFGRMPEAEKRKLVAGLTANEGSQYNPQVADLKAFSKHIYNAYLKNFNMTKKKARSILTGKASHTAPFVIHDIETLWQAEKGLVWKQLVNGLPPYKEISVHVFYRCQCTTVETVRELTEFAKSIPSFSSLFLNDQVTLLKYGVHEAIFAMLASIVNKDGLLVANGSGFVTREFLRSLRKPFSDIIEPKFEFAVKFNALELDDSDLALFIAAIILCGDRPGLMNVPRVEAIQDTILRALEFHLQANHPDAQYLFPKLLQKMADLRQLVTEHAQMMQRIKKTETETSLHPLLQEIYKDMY
Procedure: as §1
CV-1 cells were used in this assay. The cells were inoculated in a 96-well plate containing DMEM supplemented with 10% FBS, DBS (delipidated) and 1% penicillin/streptomycin and cultured in a 37 °C, 5% CO2 incubator. The experiment was performed according to the steps of inoculation, transfection, sample treatment and confirmation. Particularly, CV-1 cells were inoculated in a 96 well-plate (5000 cells/well), followed by transfection 24 hours later. Full length PPARs plasmid DNA, reporter DNA confirming PPARs activity owing to its luciferase activity, β-galactosidase DNA providing information on transfection efficiency, and transfection reagent were used for the transfection. The compounds of formula 1 and formula 2 were dissolved in dimethylsulfoxide (DMSO), which were treated to the cells via media at different concentrations. After culturing the cells in the incubator for 24 hours, the cells were lysed by using lysis buffer. Luciferase activity and β-galactosidaseactivity were measured with Luminometer and a microplate reader. The obtained values of luciferase were modified by the values of β-galactosidase. A graph was made with those values and EC50 was calculated.

[6] = 10 mg/Kg/day oral to pregnant mice
[7] = 10 mg/Kg/day oral to pregnant mice, pregnancy
[8] = 10 mg/Kg/day oral, Pregnancy + lactation

## Cc1cc(S[C@H](Cc2ccccc2)c2sc(-c3ccc(C(F)(F)F)cc3)nc2C)ccc1OCC(=O)O (racemic) [formula 1]
[1]
  EC50 PPARα: ia
[2]; [6]
  muscle colour after removing skin: red
  weight gain and growth rate of fetuses versus control: not much different
[2]; [7]
  Increasing rate (treatment group/control group), length: 2.4 times
  Increasing rate (treatment group/control group), time: 2.3 times
[2]; [8]
  Increasing rate (treatment group/control group), length: 3.0 times
  Increasing rate (treatment group/control group), time: 2.9 times
[2]; 10 mg/Kg/day oral, lactation
  Increasing rate (treatment group/control group), length: 2.2 times
  Increasing rate (treatment group/control group), time: 2.1 times
[2]; ATPase staining and immunostaining
  type I muscle fiber: increased
[2]; treadmill test
  running time: much extended
[3]
  EC50 PPARγ: ia
[4]
  HDL level increase compared with the control: 44.6%
[5]; CV-1 cells, 24 hours treatment
  EC50: 0.6 nM
[5]; PPARδ
  activity of R-isomer compared with S-isomer (formula 2): 10 times
[5]; PPARδ versus PPARα and PPARγ
  selectivity to PPARα and PPARγ: 100,000 times
